Key:
[1] = test system: non-transfected or GFPFKBP-expressing cells; assay: Organelle dispersion in cells without trap treated with AP20187; type: cell-based
Description: In vivo effect of Dynein LC and IC Traps. As tests for LC function, we evaluated the effects of the traps on early endosome, lysosome, and Golgi distribution, as well as mitotic progression. First, we fused green fluorescent protein (GFP) to the N-terminus of both FKBP-traps to identify transfected cells. Next, we transfected Cos1, Cos7, or HeLa cells with either trap or a GFP-FKBP control and labeled endosomes, lysosomes and Golgi with EEA1, LAMP2 and GM130 markers, respectively (FIGS. 12A-12C). […] The percentage of cells expressing the GFPLC8 or GFP-TcTex1 trap with dispersed endosomes was 14.7±1.5% and 13.3±1.5%, respectively, as compared to 11.7±3.5% and 10.3±3.5% for non-transfected cells and cells that expressed a GFP-FKBP control, respectively. […] After 8 h of treatment with AP20187, we observed greater than 50% dispersion of the three organelle types for each trap.
To ensure the AP20187 concentration was not limiting, we followed the LC8-trap-induced dispersion of lysosomes as a function of AP20187 concentration after 8 h. […] For the TcTex1-trap, we observed efficient endosome, lysosome and Golgi dispersion at AP20187 concentrations of 1 μM or greater.

[2] = test system: GFP IC trap transfected Cos1 cells; assay: Organelle dispersion and microtubule array in cells expressing the IC trap; type: cell-based
Procedure: FIGS. 13A-13B. FIGS. 13A-13B depict that induction of IC traps leads to Endosome (FIG. 13A) and Golgi apparatus (FIG. 13B) dispersion. Cos1 cells were transfected with the GFP IC trap (upper rights panels of FIGS. 13A and 13B) for 24 h and then treated with AP20187 for 1 h. The cells were stained with DAPI for nuclei (upper left panels of FIGS. 13 A and 13B) and EEA1 for endosomes (FIG. 13A, lower left panel)) or GM130 marker for Golgi bodies (FIG. 13B, lower left panel). Note the endosomes and Golgi apparatus are dispersed (marked “d”) within 10 min and 1 h, respectively. Cells not containing the IC trap all show compact endosomes and Golgi bodies (marked “c”). Scale bar is 5 μm.
As a test for effects on cytoplasmic dynein functions that are distinct from vesicular transport, we monitored mitotic behavior in cells expressing either the LC8- or TcTex1-traps. We observed little effect on either mitotic index or the fraction of mitotic cells at discrete mitotic stages with either trap (data not shown). […] Finally, similar studies were carried out using the IC trap. As before, we observed little or no change in the dispersion of endosomes and Golgi apparatus before AP20187 treatment. Induction of dimerization through the addition of AP20187 (1 μM) produced immediate changes in both organelles. After 4 h, 81+4% of cells contained dispersed endosomes and 68+3% of cells contained dispersed Golgi. […] The precise reason for this difference is not clear; however, currently, we attribute this to a change in the cytoskeleton, but this must still be verified. We are also in the process of measuring the effect of sequestering the dynein IC on mitotic behavior.
Microtubule architecture. Known methods of inhibiting cytoplasmic dynein, such as expression of dynactin polypeptides or RNAi against the dynein regulatory factors NudEL and ZW10, cause disorganization of the radial microtubule (MT) network in cultured mammalian cells 52-54. […] This is consistent with previous studies where overexpressing a dimeric form of the IC trap (e.g., CC1 of p150glued) also disrupts of the MT array).

LC8 and FKBP-LC8TRAP = target: T1, LC8 and FKBP-LC8TRAP (Homo sapiens, UniProt P62942, F37V); assay: Native PAGE of LC8-LC8TRAP complex formation induced by dimerizer; type: biochemical; conditions: for complex formation between LC8 and FKBP-LC8TRAP (new band): native PAGE, addition of dimerization agent
T1 construct: made in house; host or cells: bacteria (pET21D vector)
T1 sequence (P62942 with tags, fused parts or gaps F37V): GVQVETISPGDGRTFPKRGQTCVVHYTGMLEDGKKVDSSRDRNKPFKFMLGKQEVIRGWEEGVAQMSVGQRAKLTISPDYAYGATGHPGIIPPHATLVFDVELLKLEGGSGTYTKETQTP
Procedure: Native PAGE. Each of, LC8 and FKBP-LC8TRAP, were mixed in a molar concentration of 50 μM and 1.2 molar excess (60 μM) of AP20187 or 2.4 molar excess (120 μM) of PhAP20187. The mix were incubated at 4° C. for 5 min. Native PAGE analysis was performed at 16° C. using 8-25% gradient gels on the PHASTSYSTEM™ (GE Biosciences).
We then tested whether this replacement of the amine linker with the o-nitrobenzyl moiety affected the dimerization of FKBP in vitro. We used native PAGE to follow the formation of the LC8-LC8 molecular trap (LC8TRAP) complex induced by addition of PhAP. See e.g., Varma et al., 2010 (Id.) Upon the addition of PhAP to an equimolar mixture of LC8 and LC8TRAP, we observed a new band that migrated the same distance as the band produced by addition of AP (FIG. 2A).
Native PAGE analysis was conducted for stoichiometric complex formation between LC8 and FKBP-LC8TRAP on addition of dimerization agent AP.

[3] = test system: TcTex1 and FKBP-IC peptide (TcTex1 trap); assay: Native PAGE and SEC of TcTex1 / TcTex-trap complex formation with AP20187; type: biochemical
Description: To generate a TcTex1 trap, residues 107-125 of rat dynein IC2C, which specifically interact with TcTex1, were fused to the C-terminus of FKBP (FKBP-IC; FIG. 10D). […] However, addition of AP20187 to the admixture of FKBP-IC (L112A) peptide and TcTex1 produced a shift, but required a 16-fold higher concentration of AP20187 than the LC8/LC8-trap interaction (FIG. 10E, round 2). Based on this observation, we hypothesized that the sequence immediately preceding the TcTex1-binding region may interfere with the interaction, either through conformational restriction due to P109 or electrostatic repulsion due to K111. Therefore, we mutated the sequence PIK to GGS, to introduce flexible, hydrophilic residues (residues 109-111) (FIG. 10D).

[4] = Cos1 cells, after AP20187 addition
[5] = modified FKBP-IC trap, PIK to GGS (round 3)

concentration required to produce a complex band of the same intensity as the sample treated with AP (LC8 and FKBP-LC8TRAP; equimolar mixture of LC8 and LC8TRAP, relative to AP) | Compound | effect on dispersion for each organelle ([1]; AP20187 for 8 h) | dispersal of organelles at any concentration tested ([1]; non-transfected cells, <2 μM) | cells containing dispersed Golgi ([2]; AP20187 1 μM, after 4 h) | cells containing dispersed endosomes ([2]; AP20187 1 μM, after 4 h) | microtubule (MT) radial array ([2]; AP20187-induced dimerization of the IC trap) | time within which Golgi apparatus is dispersed [2, 4] | time within which endosomes are dispersed [2, 4] | complex formation between LC8 and FKBP-LC8TRAP (new band) (LC8 and FKBP-LC8TRAP) | fold higher concentration of AP20187 required for shift than the LC8/LC8-trap interaction ([3]; FKBP-IC (L112A) peptide and TcTex1 (round 2)) | concentration of AP20187 to fully sequester TcTex1 relative to that required for the LC8-trap [3, 5] | fold lower concentration of AP20187 to fully sequester TcTex1 than the FKBP-IC (L112A) peptide [3, 5]
– | CCC(C(=O)N1CCCCC1C(=O)OC(CCc1ccc(OC)c(OC)c1)c1cccc(OCC(=O)NCC(CNC(=O)COc2cccc(C(CCc3ccc(OC)c(OC)c3)OC(=O)C3CCCCN3C(=O)C(CC)c3cc(OC)c(OC)c(OC)c3)c2)CN(C)C)c1)c1cc(OC)c(OC)c(OC)c1 (stereo not shown) [AP, AP20187] | did not affect the dispersion | did not show dispersal | 68+3% | 81+4% | significantly disrupted | ≤ 1 h | ≤ 10 min | produces a new band | 16 fold | approximately twice | ~8 fold
2 × | CC[C@H](C(=O)N1CCCC[C@H]1C(=O)O[C@H](CCc1ccc(OC)c(OC)c1)c1cccc(OCC(=O)OC(C)c2ccc(C(C)OC(=O)COc3cccc([C@@H](CCc4ccc(OC)c(OC)c4)OC(=O)[C@@H]4CCCCN4C(=O)[C@@H](CC)c4cc(OC)c(OC)c(OC)c4)c3)c([N+](=O)[O-])c2)c1)c1cc(OC)c(OC)c(OC)c1 (stereo partly shown) [PhAP] | – | – | – | – | – | – | – | can also form complex between LC8 and FKBP-LC8TRAP efficiently | – | – | –

Reference: patent US9260710B2, “Photocleavable linker” (City of Hope, priority 2012, dated 2016)
